The record followed here is patent US20230295197A1, “STAT5 and STAT6 Degraders and Uses Thereof” (REGENTS OF THE UNIVERSITY OF MICHICAN, priority 2022, published 2023).

Where two headings read alike, the source gives them in different places. Bounds are passed on as bounds.

The test system of test [1] is STAT5. As to the kind of experiment: Immunoblotting (Western blot) analysis of STAT5 degradation efficiency of degraders in treated cells. The format is cell-based. An outline of the steps: (§1)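 Degradation read by quantitative near-infrared Western blot: equal protein loads (20-40 μg) from compound-treated versus untreated cells, probed overnight at 4° C. for STAT5 or STAT6 with GAPDH reference. Compound concentrations and exposure times as indicated; cells grown in medium with 10% FBS at 37° C.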

The target in test [2] is T1, STAT6 (Homo sapiens, UniProt P42226).
T1 construct: endogenous in cells; host or cells: MOLM-16, KU-812, SKNO1, MB231, L1236
T1 sequence (P42226 1-847): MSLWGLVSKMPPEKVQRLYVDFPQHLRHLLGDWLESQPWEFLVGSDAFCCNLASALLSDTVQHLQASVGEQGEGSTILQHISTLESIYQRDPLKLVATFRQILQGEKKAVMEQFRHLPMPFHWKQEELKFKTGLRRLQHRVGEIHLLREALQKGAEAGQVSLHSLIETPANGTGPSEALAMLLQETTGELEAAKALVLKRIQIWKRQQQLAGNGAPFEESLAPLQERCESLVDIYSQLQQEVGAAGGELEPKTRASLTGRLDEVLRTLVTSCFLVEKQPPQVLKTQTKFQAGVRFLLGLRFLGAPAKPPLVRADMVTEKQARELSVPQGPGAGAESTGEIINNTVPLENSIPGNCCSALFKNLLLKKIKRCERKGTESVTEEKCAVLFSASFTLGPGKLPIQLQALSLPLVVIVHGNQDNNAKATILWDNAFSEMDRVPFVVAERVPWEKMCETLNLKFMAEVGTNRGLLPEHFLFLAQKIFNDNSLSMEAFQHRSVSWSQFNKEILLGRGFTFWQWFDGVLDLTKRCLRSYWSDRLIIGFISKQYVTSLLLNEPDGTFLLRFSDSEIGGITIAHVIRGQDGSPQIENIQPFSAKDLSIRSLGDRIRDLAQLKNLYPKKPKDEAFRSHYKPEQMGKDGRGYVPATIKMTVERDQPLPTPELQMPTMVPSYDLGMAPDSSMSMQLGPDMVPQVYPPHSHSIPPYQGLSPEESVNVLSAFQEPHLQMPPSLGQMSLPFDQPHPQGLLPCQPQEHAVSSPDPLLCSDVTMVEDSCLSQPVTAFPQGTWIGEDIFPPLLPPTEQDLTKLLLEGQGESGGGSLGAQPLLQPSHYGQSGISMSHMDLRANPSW
As to the kind of experiment: Immunoblotting (Western blot) analysis of STAT6 degradation efficiency of degraders in treated cells. Conditions: MOLM-16 cells, numeric bound, read-out: DC50 S6 MOLM-16. The format is cell-based. An outline of the steps: as §1

Setting [3] is: MOLM-16 cells, numeric bound, read-out: DC50 S5 MOLM-16.
Where [4] appears, read: SKNO1 cells, read-out: DC50 S5 SKNO1.
Setting [5] is: KU-812 cells, read-out: DC50 S5 KU-812.
The mark [6] stands for this setting: MOLM-16 cells, class symbols, read-out: DC50 S5 MOLM-16.

With `CC(C)(C)[C@H](NC(=O)c1cc2cc(C(F)(F)P(=O)(O)O)ccc2s1)C(=O)N1CCC[C@H]1C(=O)N1C[C@@H](Oc2ccc3ccccc3c2)C[C@H]1C(=O)NCCCC#Cc1cccc2c1CN(C1CCC(=O)NC1=O)C2=O` (stereo partly drawn) [Compound 659, ((2-(((2S)-1-((2S)-2-((2S,4S)-2-((5-(2-(2,6-dioxopiperidin-3-yl)-1-oxoisoindolin-4-yl)pent-4-yn-1-yl)carbamoyl)-4-(naphthalen-2-yloxy)pyrrolidine-1-carbonyl)pyrrolidin-1-yl)-3,3-dimethyl-1-oxobutan-2-yl)carbamoyl)benzo[b]thiophen-5-yl)difluoromethyl)phosphonic acid], the DC50 in test [1] (setting [3]) and in test [2] was more than 300 nM throughout.

With `CC(C)(C)[C@H](NC(=O)c1cc2cc(C(F)(F)P(=O)(O)O)ccc2s1)C(=O)N1CCC[C@H]1C(=O)N(CCC(=O)NCCCC#Cc1cccc2c1CN(C1CCC(=O)NC1=O)C2=O)c1cccc2sccc12` (stereo partly drawn) [Compound 660, ((2-(((2S)-1-((2S)-2-(benzo[b]thiophen-4-yl(3-((5-(2-(2,6-dioxopiperidin-3-yl)-1-oxoisoindolin-4-yl)pent-4-yn-1-yl)amino)-3-oxopropyl)carbamoyl)pyrrolidin-1-yl)-3,3-dimethyl-1-oxobutan-2-yl)carbamoyl)benzo[b]thiophen-5-yl)difluoromethyl)phosphonic acid], the DC50 in test [1] (setting [3]) was more than 300 nM; in test [1] (setting [4]) it was 1000 to 10000 nM; in test [2], more than 300 nM.

`CC(C)(C)[C@H](NC(=O)c1cc2cc(C(F)(F)P(=O)(O)O)ccc2s1)C(=O)N1CCC[C@H]1C(=O)N(CCC(=O)NCCCC#Cc1cccc2c1CN(C1CCC(=O)NC1=O)C2=O)c1ccc2occc2c1` (stereo partly drawn) [Compound 661, ((2-(((2S)-1-((2S)-2-(benzofuran-5-yl(3-((5-(2-(2,6-dioxopiperidin-3-yl)-1-oxoisoindolin-4-yl)pent-4-yn-1-yl)amino)-3-oxopropyl)carbamoyl)pyrrolidin-1-yl)-3,3-dimethyl-1-oxobutan-2-yl)carbamoyl)benzo[b]thiophen-5-yl)difluoromethyl)phosphonic acid]: the DC50 was 100 to 1000 nM in test [1] (setting [5]), less than 100 nM in test [1] (setting [6]), 100 to 1000 nM in test [1] (setting [4]) and more than 300 nM in test [2].

`CC(C)(C)[C@H](NC(=O)c1cc2cc(C(F)(F)P(=O)(O)O)ccc2s1)C(=O)N1CCC[C@H]1C(=O)N(CCC(=O)NCCCC#Cc1cccc2c1CN(C1CCC(=O)NC1=O)C2=O)c1ccc2ncsc2c1` (stereo partly drawn) [Compound 662, ((2-(((2S)-1-((2S)-2-(benzo[d]thiazol-6-yl(3-((5-(2-(2,6-dioxopiperidin-3-yl)-1-oxoisoindolin-4-yl)pent-4-yn-1-yl)amino)-3-oxopropyl)carbamoyl)pyrrolidin-1-yl)-3,3-dimethyl-1-oxobutan-2-yl)carbamoyl)benzo[b]thiophen-5-yl)difluoromethyl)phosphonic acid]: the DC50 was more than 10000 nM in test [1] (setting [5]), more than 300 nM in test [1] (setting [3]), more than 10000 nM in test [1] (setting [4]) and more than 300 nM in test [2].

With `CC(C)(C)[C@H](NC(=O)c1cc2cc(C(F)(F)P(=O)(O)O)ccc2s1)C(=O)N1CCC[C@H]1C(=O)N(CCC(=O)NCCCC#Cc1cccc2c1CN(C1CCC(=O)NC1=O)C2=O)c1ccc(-c2ccccc2)cc1` (stereo partly drawn) [Compound 663, ((2-(((2S)-1-((2S)-2-([1,1′-biphenyl]-4-yl(3-((5-(2-(2,6-dioxopiperidin-3-yl)-1-oxoisoindolin-4-yl)pent-4-yn-1-yl)amino)-3-oxopropyl)carbamoyl)pyrrolidin-1-yl)-3,3-dimethyl-1-oxobutan-2-yl)carbamoyl)benzo[b]thiophen-5-yl)difluoromethyl)phosphonic acid], the DC50 was 1000 to 10000 nM in test [1] (setting [5]), more than 300 nM in test [1] (setting [3]), 1000 to 10000 nM in test [1] (setting [4]) and more than 300 nM in test [2].

For the compound `O=C(CCN(C(=O)CN1CCCC[C@H](NC(=O)c2cc3cc(C(F)(F)P(=O)(O)O)ccc3s2)C1=O)c1ccc(Br)cc1)NCCCC#Cc1cccc2c1CN(C1CCC(=O)NC1=O)C2=O` (stereo partly drawn) [Compound 664, ((2-(((3S)-1-(2-((4-bromophenyl)(3-((5-(2-(2,6-dioxopiperidin-3-yl)-1-oxoisoindolin-4-yl)pent-4-yn-1-yl)amino)-3-oxopropyl)amino)-2-oxoethyl)-2-oxoazepan-3-yl)carbamoyl)benzo[b]thiophen-5-yl)difluoromethyl)phosphonic acid], the DC50 in test [1] (setting [3]) and in test [2] was more than 300 nM throughout.

With `CN(CCCC#Cc1cccc2c1CN(C1CCC(=O)NC1=O)C2=O)C(=O)CCN(C(=O)[C@@H]1CCCN1C(=O)[C@@H](NC(=O)c1cc2cc(C(F)(F)P(=O)(O)O)ccc2s1)C(C)(C)C)c1ccc(Br)cc1` (stereo partly drawn) [Compound 665, ((2-(((2S)-1-((2S)-2-((4-bromophenyl)(3-((5-(2-(2,6-dioxopiperidin-3-yl)-1-oxoisoindolin-4-yl)pent-4-yn-1-yl)(methyl)amino)-3-oxopropyl)carbamoyl)pyrrolidin-1-yl)-3,3-dimethyl-1-oxobutan-2-yl)carbamoyl)benzo[b]thiophen-5-yl)difluoromethyl)phosphonic acid], the DC50 in test [1] (setting [5]) is 100 to 1000 nM; in test [1] (setting [6]), less than 100 nM; in test [1] (setting [4]) it was 100 to 1000 nM; in test [2], more than 300 nM.

With `CC(C)(C)[C@H](NC(=O)c1cc2cc(C(F)(F)P(=O)(O)O)ccc2s1)C(=O)N1CCC[C@H]1C(=O)N(CCC(=O)N1CC(CCC#Cc2cccc3c2CN(C2CCC(=O)NC2=O)C3=O)C1)c1ccc(Br)cc1` (stereo partly drawn) [Compound 666, ((2-(((2S)-1-((2S)-2-((4-bromophenyl)(3-(3-(4-(2-(2,6-dioxopiperidin-3-yl)-1-oxoisoindolin-4-yl)but-3-yn-1-yl)azetidin-1-yl)-3-oxopropyl)carbamoyl)pyrrolidin-1-yl)-3,3-dimethyl-1-oxobutan-2-yl)carbamoyl)benzo[b]thiophen-5-yl)difluoromethyl)phosphonic acid], the DC50 was 1000 to 10000 nM in test [1] (setting [5]), more than 300 nM in test [1] (setting [3]), 1000 to 10000 nM in test [1] (setting [4]) and more than 300 nM in test [2].

Regarding `CC(C)(C)[C@H](NC(=O)c1cc2cc(C(F)(F)P(=O)(O)O)ccc2s1)C(=O)N1CCC[C@H]1C(=O)N(CCC(=O)N1CC(CC#Cc2cccc3c2CN(C2CCC(=O)NC2=O)C3=O)C1)c1ccc(Br)cc1` (stereo partly drawn) [Compound 667, ((2-(((2S)-1-((2S)-2-((4-bromophenyl)(3-(3-(3-(2-(2,6-dioxopiperidin-3-yl)-1-oxoisoindolin-4-yl)prop-2-yn-1-yl)azetidin-1-yl)-3-oxopropyl)carbamoyl)pyrrolidin-1-yl)-3,3-dimethyl-1-oxobutan-2-yl)carbamoyl)benzo[b]thiophen-5-yl)difluoromethyl)phosphonic acid], the DC50 is more than 10000 nM in test [1] (setting [5]), more than 300 nM in test [1] (setting [3]), more than 10000 nM in test [1] (setting [4]) and more than 300 nM in test [2].

For the compound `CC(C)(C)[C@H](NC(=O)c1cc2cc(C(F)(F)P(=O)(O)O)ccc2s1)C(=O)N1CCC[C@H]1C(=O)N(CCC(=O)NCCCC#Cc1cccc2c1CN(C1CCC(=O)NC1=O)C2=O)c1ccc2scnc2c1` (stereo partly drawn) [Compound 668, ((2-(((2S)-1-((2S)-2-(benzo[d]thiazol-5-yl(3-((5-(2-(2,6-dioxopiperidin-3-yl)-1-oxoisoindolin-4-yl)pent-4-yn-1-yl)amino)-3-oxopropyl)carbamoyl)pyrrolidin-1-yl)-3,3-dimethyl-1-oxobutan-2-yl)carbamoyl)benzo[b]thiophen-5-yl)difluoromethyl)phosphonic acid], the DC50 in test [1] (setting [5]) was 100 to 1000 nM; in test [1] (setting [6]), less than 100 nM; in test [1] (setting [4]) it was 100 to 1000 nM; in test [2], more than 300 nM.

For `CC(C)(C)[C@H](NC(=O)c1cc2cc(C(F)(F)P(=O)(O)O)ccc2s1)C(=O)N1CCC[C@H]1C(=O)N(CCC(=O)NCCCC#Cc1cccc2c1CN(C1CCC(=O)NC1=O)C2=O)c1ccc2c(c1)CCCO2` (stereo partly drawn) [Compound 669, ((2-(((2S)-1-((2S)-2-(chroman-6-yl(3-((5-(2-(2,6-dioxopiperidin-3-yl)-1-oxoisoindolin-4-yl)pent-4-yn-1-yl)amino)-3-oxopropyl)carbamoyl)pyrrolidin-1-yl)-3,3-dimethyl-1-oxobutan-2-yl)carbamoyl)benzo[b]thiophen-5-yl)difluoromethyl)phosphonic acid], the values for the DC50 in test [1] (setting [3]), in test [1] (setting [4]) and in test [2] were more than 300 nM, more than 10000 nM and more than 300 nM, respectively.
